Measured values published in patent US20250084056A1, “SUBSTITUTED OXOISOINDOLINYL PIPERIDINE-2,6-DIONE COMPOUNDS” (BRISTOL-MYERS SQUIBB COMPANY, priority 2023, published 2025).
pIC50: −log10 of the molar value.

Experiments:
Assay type in all cases: cell-based
Phospho-Rb (Ser807/811) = assay: Phospho-Retinoblastoma (pRB) Cellular Assay; settings: Homo sapiens, OVCAR-3, NIH OVCAR3 cells, 24 hours; for pIC50: concentration giving 50% response; for Emax: maximum response, reference compound at 10 μM = 100%, read-out: pRB Ymax
In short: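 Phospho-Rb (Ser807/811) kit read-out on EnVision after lysis (≥4 h, room temperature, dark) of OVCAR3 cells exposed to compound dilutions for 24 h. IC50 and maximum response Ymax are relative to a 10 μM reference compound defining 100%.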

GSPT1 = GSPT1 (Homo sapiens, UniProt P15170+Q96SW2); assay: GSPT1 Cellular Degradation Assay (DF15-GSPT1-ePL); parameters: expressed in transfected cells; settings: DF15-GSPT1-ePL cells, 20 hours
In short: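 DC50 and Dmax were derived from chemiluminescence, with 75% response set by the reference compound at […]. Readout was ePL enzyme-fragment complementation in a DF15 line expressing chimeric GSPT1. Cells were exposed to compound for 20 h at 37 °C in RPMI 1640 with 10% FBS, cooled 30 min, then lysed with substrate for 60 min.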

Cyclin E1 = Cyclin E1 (Homo sapiens, UniProt P24864+Q96SW2); assay: Cyclin E1 Cellular Degradation Assay (MSD); parameters: endogenous in cells; host or cells: OVCAR3; settings: for DC50 / Dmax: Cyclin E1 cellular degradation; for Dmax: maximum degradation; for Ratio of GSPT1 DC50/Cyclin E1 DC50: selectivity for degradation of Cyclin E1 over GSPT1
In short: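 Cyclin E1 remaining after 24 h compound exposure of OVCAR3 cells was quantified in lysates by electrochemiluminescent MSD sandwich assay. DC50 (50% response concentration) and Dmax (maximum response) were calculated, with 110% response set by a reference compound at […].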

Chain of GSPT1 (P15170 whole entry, the tested form may be a part): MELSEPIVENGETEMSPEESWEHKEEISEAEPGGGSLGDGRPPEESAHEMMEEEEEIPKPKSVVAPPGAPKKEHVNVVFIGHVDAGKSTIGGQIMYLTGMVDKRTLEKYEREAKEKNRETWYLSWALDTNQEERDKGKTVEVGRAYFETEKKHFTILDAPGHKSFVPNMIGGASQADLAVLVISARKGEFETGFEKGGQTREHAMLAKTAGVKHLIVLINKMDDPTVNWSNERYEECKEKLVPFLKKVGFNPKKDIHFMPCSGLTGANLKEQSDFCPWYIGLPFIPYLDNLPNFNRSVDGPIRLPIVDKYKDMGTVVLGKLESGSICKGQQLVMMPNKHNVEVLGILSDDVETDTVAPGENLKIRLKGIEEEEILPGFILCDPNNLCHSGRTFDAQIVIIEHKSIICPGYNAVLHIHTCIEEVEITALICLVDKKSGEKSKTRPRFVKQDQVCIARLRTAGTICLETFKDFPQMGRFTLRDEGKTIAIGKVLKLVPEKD
Chain of GSPT1 (Q96SW2 whole entry, the tested form may be a part): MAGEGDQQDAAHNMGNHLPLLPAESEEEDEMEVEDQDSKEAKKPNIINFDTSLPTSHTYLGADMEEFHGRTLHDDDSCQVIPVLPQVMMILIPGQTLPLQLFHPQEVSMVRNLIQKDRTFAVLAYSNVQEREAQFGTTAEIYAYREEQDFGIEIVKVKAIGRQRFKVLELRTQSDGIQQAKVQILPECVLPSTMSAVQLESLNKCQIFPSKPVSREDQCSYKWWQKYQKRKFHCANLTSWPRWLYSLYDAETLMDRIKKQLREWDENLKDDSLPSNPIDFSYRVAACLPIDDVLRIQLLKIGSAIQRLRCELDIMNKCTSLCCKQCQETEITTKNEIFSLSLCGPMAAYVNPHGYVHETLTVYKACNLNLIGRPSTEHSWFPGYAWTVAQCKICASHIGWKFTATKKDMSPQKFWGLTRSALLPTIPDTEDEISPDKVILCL
Chain of GSPT1 (Q16531 whole entry partner, the tested form may be a part): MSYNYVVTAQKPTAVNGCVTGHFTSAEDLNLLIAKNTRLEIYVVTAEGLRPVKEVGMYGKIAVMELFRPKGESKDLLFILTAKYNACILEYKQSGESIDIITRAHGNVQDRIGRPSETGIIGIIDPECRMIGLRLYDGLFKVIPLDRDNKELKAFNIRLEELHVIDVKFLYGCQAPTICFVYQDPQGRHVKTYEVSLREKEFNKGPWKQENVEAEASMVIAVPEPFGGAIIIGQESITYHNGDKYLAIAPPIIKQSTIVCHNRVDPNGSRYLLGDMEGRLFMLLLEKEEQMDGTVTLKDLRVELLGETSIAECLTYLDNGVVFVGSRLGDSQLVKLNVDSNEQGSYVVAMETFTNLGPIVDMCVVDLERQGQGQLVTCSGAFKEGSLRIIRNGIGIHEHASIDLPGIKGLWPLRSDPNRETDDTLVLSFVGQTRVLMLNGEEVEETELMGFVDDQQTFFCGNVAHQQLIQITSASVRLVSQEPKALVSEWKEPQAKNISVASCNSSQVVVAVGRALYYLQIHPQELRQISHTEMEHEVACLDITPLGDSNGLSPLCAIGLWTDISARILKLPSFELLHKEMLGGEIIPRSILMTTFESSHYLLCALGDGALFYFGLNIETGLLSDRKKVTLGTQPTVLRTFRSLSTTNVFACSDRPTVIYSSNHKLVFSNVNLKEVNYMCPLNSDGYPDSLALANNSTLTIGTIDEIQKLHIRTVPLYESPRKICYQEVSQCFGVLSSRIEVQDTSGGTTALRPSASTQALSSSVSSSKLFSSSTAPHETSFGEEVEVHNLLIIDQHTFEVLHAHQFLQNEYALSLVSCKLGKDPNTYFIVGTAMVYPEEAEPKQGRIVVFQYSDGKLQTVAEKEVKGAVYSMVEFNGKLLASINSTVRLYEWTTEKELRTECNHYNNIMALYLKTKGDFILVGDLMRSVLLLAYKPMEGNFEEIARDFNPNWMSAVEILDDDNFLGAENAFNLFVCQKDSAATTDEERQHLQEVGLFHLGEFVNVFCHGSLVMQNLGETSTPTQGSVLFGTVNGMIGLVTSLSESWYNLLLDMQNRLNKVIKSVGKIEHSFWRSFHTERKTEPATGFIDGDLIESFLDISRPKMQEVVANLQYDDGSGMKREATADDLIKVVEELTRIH
Chain of Cyclin E1 (P24864 whole entry): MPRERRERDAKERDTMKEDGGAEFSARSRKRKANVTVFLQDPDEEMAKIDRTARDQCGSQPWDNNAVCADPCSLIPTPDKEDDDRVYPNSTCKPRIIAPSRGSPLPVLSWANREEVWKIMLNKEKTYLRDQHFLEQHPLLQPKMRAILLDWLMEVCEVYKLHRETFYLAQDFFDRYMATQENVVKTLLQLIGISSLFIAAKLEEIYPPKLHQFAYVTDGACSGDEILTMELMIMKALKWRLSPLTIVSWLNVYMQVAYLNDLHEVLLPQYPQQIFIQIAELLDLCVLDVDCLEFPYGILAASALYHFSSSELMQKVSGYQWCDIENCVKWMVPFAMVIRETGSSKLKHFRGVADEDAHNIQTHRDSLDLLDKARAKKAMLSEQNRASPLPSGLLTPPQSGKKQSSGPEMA
Chain of Cyclin E1 (Q96SW2 whole entry): as the sequence (Q96SW2 whole entry, the tested form may be a part) above
Chain of Cyclin E1 (Q16531 whole entry partner): as the sequence (Q16531 whole entry partner, the tested form may be a part) above

| Structure (SMILES) | pIC50 (Phospho-Rb (Ser807/811)) | Emax (Phospho-Rb (Ser807/811)) | DC50 (GSPT1) | Dmax (GSPT1) | DC50 (Cyclin E1) | Dmax (Cyclin E1) | Ratio of GSPT1 DC50/Cyclin E1 DC50 (Cyclin E1) |
| --- | --- | --- | --- | --- | --- | --- | --- |
| COc1cc(Oc2ccc(F)cc2OC)ccc1NC(=O)OCc1ccc2c(c1OC)C(=O)N(C1CCC(=O)NC1=O)C2 (stereo not drawn) [Example 50, [2-(2,6-dioxopiperidin-3-yl)-4-methoxy-3-oxo-2,3-dihydro-1H-isoindol-5-yl]methyl N-[4-(4-fluoro-2-methoxyphenoxy)-2-methoxyphenyl]carbamate] | 5.68 | 77% | > 14000 nM | 25% | 463 nM | 77% | >30 |
| COc1c(COC(=O)Nc2ccc(Oc3cccc(Br)c3)cc2)ccc2c1C(=O)N(C1CCC(=O)NC1=O)C2 (stereo not drawn) [Example 10, [2-(2,6-dioxopiperidin-3-yl)-4-methoxy-3-oxo-2,3-dihydro-1H-isoindol-5-yl]methyl N-[4-(3-bromophenoxy)phenyl]carbamate] | 6.45 | 105% | > 14000 nM | 54% | 114 nM | 106% | >123 |
| COc1c(COC(=O)Nc2ccc(Oc3cc(F)c(F)cc3F)cc2)ccc2c1C(=O)N(C1CCC(=O)NC1=O)C2 (stereo not drawn) [Example 44, [2-(2,6-dioxopiperidin-3-yl)-4-methoxy-3-oxo-2,3-dihydro-1H-isoindol-5-yl]methyl N-[4-(2,4,5-trifluorophenoxy)phenyl]carbamate] | 6.96 | 111% | > 14000 nM | 42% | 273 nM | 111% | >51 |
| COc1c(COC(=O)Nc2ccc(Oc3cccc(F)c3Cl)cc2)ccc2c1C(=O)N(C1CCC(=O)NC1=O)C2 (stereo not drawn) [Example 111, [2-(2,6-dioxopiperidin-3-yl)-4-methoxy-3-oxo-2,3-dihydro-1H-isoindol-5-yl]methyl N-[4-(2-chloro-3-fluorophenoxy)phenyl]carbamate] | 7.13 | 99% | > 14000 nM | 15% | 95 nM | 106% | >147 |
| COc1c(COC(=O)Nc2ccc(Oc3cccc(C)c3)cc2)ccc2c1C(=O)N(C1CCC(=O)NC1=O)C2 (stereo not drawn) [Example 11, [2-(2,6-dioxopiperidin-3-yl)-4-methoxy-3-oxo-2,3-dihydro-1H-isoindol-5-yl]methyl N-[4-(3-methylphenoxy)phenyl]carbamate] | 6.45 | 98% | > 14000 nM | 33% | 61 nM | 112% | >228 |
| O=C1CCC(N2Cc3ccc(COC(=O)Nc4ccc(Oc5ccc(F)cc5Cl)cc4)c(Oc4ccccc4)c3C2=O)C(=O)N1 (stereo not drawn) [Example 70, [2-(2,6-dioxopiperidin-3-yl)-3-oxo-4-phenoxy-2,3-dihydro-1H-isoindol-5-yl]methyl N-[4-(2-chloro-4-fluorophenoxy)phenyl]carbamate] | 6.65 | 114% | > 14000 nM | 9% | 185 nM | 94% | >76 |
| COc1c(COC(=O)Nc2ccc(Oc3cc(F)c(F)c(F)c3)cc2F)ccc2c1C(=O)N(C1CCC(=O)NC1=O)C2 (stereo not drawn) [Example 15, [2-(2,6-dioxopiperidin-3-yl)-4-methoxy-3-oxo-2,3-dihydro-1H-isoindol-5-yl]methyl N-[2-fluoro-4-(3,4,5-trifluorophenoxy)phenyl]carbamate] | 6.90 | 109% | > 14000 nM | 48% | 35 nM | 109% | >395 |
| NC(=O)COc1c(COC(=O)Nc2ccc(Oc3ccc(F)c(F)c3)cc2)ccc2c1C(=O)N(C1CCC(=O)NC1=O)C2 (stereo not drawn) [Example 176, [4-(carbamoylmethoxy)-2-(2,6-dioxopiperidin-3-yl)-3-oxo-2,3-dihydro-1H-isoindol-5-yl]methyl N-[4-(3,4-difluorophenoxy)phenyl]carbamate] | 7.36 | 112% | > 14000 nM | 20% | 179 nM | 101% | >78 |
| O=C1CCC(N2Cc3ccc(COC(=O)Nc4ccc(Oc5ccc(F)c(F)c5)cc4)c(OC4COC4)c3C2=O)C(=O)N1 (stereo not drawn) [Example 129, [2-(2,6-dioxopiperidin-3-yl)-4-(oxetan-3-yloxy)-3-oxo-2,3-dihydro-1H-isoindol-5-yl]methyl N-[4-(3,4-difluorophenoxy)phenyl]carbamate] | 6.73 | 117% | > 14000 nM | 19% | 221 nM | 107% | >63 |
| O=C1CCC(N2Cc3ccc(COC(=O)Nc4ccc(Oc5ccc(F)c(F)c5)cc4)c(O[C@H]4CCOC4)c3C2=O)C(=O)N1 (stereo partly drawn) [Example 152, [2-(2,6-dioxopiperidin-3-yl)-3-oxo-4-[(3S)-oxolan-3-yloxy]-2,3-dihydro-1H-isoindol-5-yl]methyl N-[4-(3,4-difluorophenoxy)phenyl]carbamate] | 6.82 | 120% | > 14000 nM | 32% | 152 nM | 108% | >92 |
| CCOc1c(COC(=O)Nc2ccc(Oc3cccc(F)c3)cc2)ccc2c1C(=O)N(C1CCC(=O)NC1=O)C2 (stereo not drawn) [Example 55, [2-(2,6-dioxopiperidin-3-yl)-4-ethoxy-3-oxo-2,3-dihydro-1H-isoindol-5-yl]methyl N-[4-(3-fluorophenoxy)phenyl]carbamate] | 6.73 | 114% | > 14000 nM | 21% | 141 nM | 108% | >99 |
| COc1c(COC(=O)Nc2ccc(Oc3ccc(F)c(F)c3)cc2Cl)ccc2c1C(=O)N(C1CCC(=O)NC1=O)C2 (stereo not drawn) [Example 46, [2-(2,6-dioxopiperidin-3-yl)-4-methoxy-3-oxo-2,3-dihydro-1H-isoindol-5-yl]methyl N-[2-chloro-4-(3,4-difluorophenoxy)phenyl]carbamate] | 6.42 | 102% | > 14000 nM | 42% | 357 nM | 105% | >39 |
| COc1c(COC(=O)Nc2ccc(Oc3cccc4ccccc34)cc2)ccc2c1C(=O)N(C1CCC(=O)NC1=O)C2 (stereo not drawn) [Example 113, [2-(2,6-dioxopiperidin-3-yl)-4-methoxy-3-oxo-2,3-dihydro-1H-isoindol-5-yl]methyl N-[4-(naphthalen-1-yloxy)phenyl]carbamate] | 7.00 | 93% | > 14000 nM | 37% | 190 nM | 113% | >74 |
| CC(C)Oc1c(COC(=O)Nc2ccc(Oc3ccccc3)cc2)ccc2c1C(=O)N(C1CCC(=O)NC1=O)C2 (stereo not drawn) [Example 57, [2-(2,6-dioxopiperidin-3-yl)-3-oxo-4-(propan-2-yloxy)-2,3-dihydro-1H-isoindol-5-yl]methyl N-(4-phenoxyphenyl)carbamate] | 6.67 | 114% | > 14000 nM | 36% | 128 nM | 102% | >109 |
| COc1c(COC(=O)Nc2ccc(Oc3ccc(F)cc3)cc2C)ccc2c1C(=O)N(C1CCC(=O)NC1=O)C2 (stereo not drawn) [Example 51, [2-(2,6-dioxopiperidin-3-yl)-4-methoxy-3-oxo-2,3-dihydro-1H-isoindol-5-yl]methyl N-[4-(4-fluorophenoxy)-2-methylphenyl]carbamate] | 6.73 | 109% | > 14000 nM | 16% | 363 nM | 106% | >39 |
| COc1c(COC(=O)Nc2ccc(Oc3ccc(F)cc3C)cc2)ccc2c1C(=O)N(C1CCC(=O)NC1=O)C2 (stereo not drawn) [Example 81, [2-(2,6-dioxopiperidin-3-yl)-4-methoxy-3-oxo-2,3-dihydro-1H-isoindol-5-yl]methyl N-[4-(4-fluoro-2-methylphenoxy)phenyl]carbamate] | 7.19 | 103% | > 14000 nM | 37% | 92 nM | 110% | >152 |
| COc1c(COC(=O)Nc2ccc(Oc3ccccc3Cl)cc2F)ccc2c1C(=O)N(C1CCC(=O)NC1=O)C2 (stereo not drawn) [Example 107, [2-(2,6-dioxopiperidin-3-yl)-4-methoxy-3-oxo-2,3-dihydro-1H-isoindol-5-yl]methyl N-[4-(2-chlorophenoxy)-2-fluorophenyl]carbamate] | 6.97 | 124% | 10000 nM | 63% | 69 nM | 108% | 146 |
| COc1c(COC(=O)Nc2ccc(Oc3ccccc3)cc2)ccc2c1C(=O)N(C1CCC(=O)NC1=O)C2 (stereo not drawn) [Example 2, [2-(2,6-dioxopiperidin-3-yl)-4-methoxy-3-oxo-2,3-dihydro-1H-isoindol-5-yl]methyl N-(4-phenoxyphenyl)carbamate] | 7.08 | 123% | > 14000 nM | 32% | 78 nM | 108% | >180 |
